Assay results taken from US6858723B1, “Amphiphile cyclodextrins, preparation and use thereof for solubilizing organized systems and incorporating hydrophobic molecules” (Commissariat a l'Energie Atomique, priority 1999, dated 2005).

Tests used:
Type in all cases: physicochemical
[1] = neutron diffusion of nanoparticles loaded with hydrophobic compounds
Text: FIG. 7 represents the neutron diffusion spectra obtained with: • the solution of nanoparticles of cyclodextrin according to example 1 and the fatty acid (1:0.5 eq. mol) (spectrum 9); • the solution of nanoparticles of cyclodextrin according to example 1 and the fatty acid (1:1 eg. mol) (spectrum 10); and • the solution of nanoparticles of cyclodextrin alone (spectrum 11).
In this figure, the theoretical spectrum (spectrum 12) simulating spheres has also been represented.
The intensity I(q) is increased. The Intensity I(q) is proportional to the volume of nanoparticles. The presence of additional molecules (fatty acid molecules) in the nanoparticles increases the value of the contrast and therefore the intensity.
The incorporation in mono-6-(cholest-5-en-3α-ylamide)succinylamide-6-deoxy-2,2′,2″,2′″,2″″,2′″″,2″″″,6′,6″,6′″, 6″″,6′″″,6″″″-trideca-O-methyl-cyclomaltoheptaose nanoparticles of the following hydrophobic compounds: • dothiepin (neurotrope), • chloramphenicol (bacteriostatic), • vitamin A, and • esculin (vascular wall tonic), • were also detected by neutron diffusion. References

[2] = static light diffusion of aqueous nanoparticle solutions
Protocol: The mean hydrodynamic diameter of the nanoparticles was measured by quasi-elastic light diffusion. The mean diameter MD value calculated according to the Stokes-Einstein approximation based on the interaction-free perfect sphere model is […] (60 Å). The static light diffusion analysis of aqueous solutions of nanoparticles at different concentrations (2.5.10^−3, 5.10^−3 and 10^−2 mol/l) gives a mean aggregate mass of 43,000 g/mol, which is equivalent to a mean of 24 monomers per nanoparticle.

[3] = neutron diffusion of nanoparticle solution; conditions: 10^−2 mol/l in D2O
Text: The diffusion spectrum obtained from a 10^−2 mol/l solution in D2O of the cyclodextrin derivative in example 1 is represented in FIG. 1 (spectrum 1).
In FIG. 1, the theoretical spectra simulating spheres (spectrum 2), cylinders (spectrum 3) or lamellae (spectrum 4) formed from the cyclodextrin derivative in example 1, at a concentration of 10^−2 mol/l in D2O, are also shown. […] These aggregates are lined on the surface with cyclodextrin cavities available for the inclusion of hydrophobic active molecules, the core being composed of cholesterol groups. The theoretical spectrum simulating spheres gives a mean diameter of […] (50 Å) and a mean number of monomers per nanoparticle of 24.

[4] = cmc by surface tension measurements
Protocol: The cmc of the cyclodextrin in example 1 was determined with surface tension measurements. The value of the cmc is 9.10^−6 mol/l.

| Molecule | incorporation in nanoparticles of the cyclodextrin of example 1 [1] | also measured |
| --- | --- | --- |
| mono-6-(cholest-5-en-3α-ylaamide)succinylamide-6-deoxy-2,2′,2″,2′″,2″″,2′″″,2″″″,6,6′,6″,6′″,6″″,6′″″,6″″″-trideca-O-methyl-cyclomaltoheptaose [example 1] |  | mean aggregate mass ([2]; aqueous solutions 2.5.10^−3, 5.10^−3 and 10^−2 mol/l): 43,000 g/mol; mean monomers per nanoparticle ([2]; from mean aggregate mass): 24; shape of aggregates ([3]; experimental spectrum superimposed with theoretical spectrum of spheres): spherical shape; mean number of monomers per nanoparticle ([3]; theoretical spectrum simulating spheres): 24; critical micellar concentration cmc [4]: 9.10^−6 mol/l |
| O=c1ccc2cc(O[C@@H]3O[C@H](CO)[C@@H](O)[C@H](O)[C@H]3O)c(O)cc2o1 [esculin] | detected |  |
| CC(CCCCCCCCCCCCCI)CC(=O)O (stereo not shown) [16-iodo-3-methylhexadecanoic acid] | marked modifications on the diffusion spectra |  |

Second part, led by results:

| incorporation in nanoparticles of the cyclodextrin of example 1 [1] | Molecule | also measured |
| --- | --- | --- |
| detected | CN(C)CC/C=C1\c2ccccc2CSc2ccccc21 [dothiepin] |  |
| detected | O=C(N[C@H](CO)[C@H](O)c1ccc([N+](=O)[O-])cc1)C(Cl)Cl [chloramphenicol] |  |
| detected | vitamin A |  |
